{"source": "patent EP4722209A1", "about": "(Beijing Shenogen Pharma Group, priority 2023, dated 2024)", "key": {"ERα": {"molecular_target": "T1, ERα (Homo sapiens, UniProt P03372)", "T1 construct": "host or cells: MCF-7", "T1 sequence (P03372 1-595)": "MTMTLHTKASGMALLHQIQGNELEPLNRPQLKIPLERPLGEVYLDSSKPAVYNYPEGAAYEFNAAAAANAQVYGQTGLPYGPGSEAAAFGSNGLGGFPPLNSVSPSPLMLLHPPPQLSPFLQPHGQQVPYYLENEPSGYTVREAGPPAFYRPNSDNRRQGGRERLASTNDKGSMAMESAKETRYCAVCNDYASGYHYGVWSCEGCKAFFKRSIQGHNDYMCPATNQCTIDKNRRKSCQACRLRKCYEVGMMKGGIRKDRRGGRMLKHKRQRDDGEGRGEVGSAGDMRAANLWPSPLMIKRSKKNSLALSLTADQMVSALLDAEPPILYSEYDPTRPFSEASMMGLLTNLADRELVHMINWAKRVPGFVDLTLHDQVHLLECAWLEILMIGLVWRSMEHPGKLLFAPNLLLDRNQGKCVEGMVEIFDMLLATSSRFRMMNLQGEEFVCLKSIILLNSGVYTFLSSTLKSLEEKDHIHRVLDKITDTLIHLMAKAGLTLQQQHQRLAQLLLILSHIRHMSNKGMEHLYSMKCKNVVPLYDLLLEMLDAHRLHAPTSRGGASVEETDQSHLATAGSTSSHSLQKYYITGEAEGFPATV", "assay": "ER degradation activity in MCF-7 cells (Western blot, grayscale intensity)", "assay_type": "cell-based", "conditions": "6 hours treatment, 1 nM to 100 nM, concentration required to degrade 50% of the target protein", "procedure,_shortened": "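MCF-7 cells were treated 24 h after seeding with test compounds at 1 nM to 100 nM final (0.2% DMSO) for 6 h at 37 °C. ERα in lysates (30 µg protein) was detected by Western blot with ECL; degradation was quantified from band grayscale intensity and DC50 derived.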"}, "MCF-7 cells": {"tested_on": "MCF-7 cells", "assay": "Inhibition of MCF-7 cell proliferation (CellTiter-Glo cell viability)", "assay_type": "cell-based", "conditions": "Homo sapiens, MCF7, 144 h, 6 days treatment, 1 pM to 10 µM", "procedure": "ERα-positive human breast cancer cells MCF-7 (ATCC, HTB-22) were cultured with EMEM medium (ATCC, catalog number 30-2003) containing 10% fetal bovine serum (Thermo Fisher, catalog number 10099141) and 10 µg/mL bovine insulin in 25 cm^2 or 75 cm^2 plastic tissue culture flasks in a 37 °C incubator with 5% CO2. The cells were passaged 2 to 3 times per week.\nMCF-7 cells were seeded in 96-well plate at 3×10^3 cells/well with 90 µL culture medium per well, and cultured in a 37 °C incubator with 95% air and 5% CO2. After 24 hours, the test compounds were added: the compounds were serially diluted 10-fold in DMSO starting from 10 mM (dissolved in DMSO) to prepare gradient stock solutions. A complete culture medium containing 1% DMSO was prepared for further dilution, temporarily named as the \"dilution buffer.\" Working solutions were prepared by diluting each stock solution with 99 times the volume of dilution buffer, that is, by adding 1 µL of the 10 mM stock solution to 99 µL of the dilution buffer and mixing thoroughly. Finally, 10 µL of the working solution was added to the cell-seeded culture plate. The final concentration of DMSO in the cell culture medium was 0.2%, and the final concentration of the test compounds ranged from 1 pM to 10 µM. The cells were then incubated at 37 °C for 3 days. The culture medium was removed and replaced with 90µL per well of fresh medium. According to the above compound dilution method, the test compounds were added again. On the 6th day, the CellTiter Glo luminescent cell viability assay kit (Promag, item number G7573) was added for cell viability measurement.\nCell viability was measured using the CellTiter-Glo assay kit, and the half-maximal growth inhibitory concentration (GI50) of the compounds was calculated using the Prism software.\nThe GI50 values (i.e., the concentration of the test compounds required to inhibit 50% of the cell proliferation) were calculated and shown in Table 2. A corresponds to a GI50 value below 10 nM, B corresponds to a GI50 value greater than 10 nM and less than 100 nM, and C corresponds to GI50 values greater than 100 nM. Table 2. The GI50 values of exemplary compounds in MCF-7 cells"}, "[1]": {"tested_on": "MCF-7/ERα Y537S xenografts", "assay": "Anti-tumor activity in MCF-7 xenografts expressing ERα Y537S mutant", "assay_type": "in vivo, female Balb/c nude mice", "conditions": "1, 3 and 10 mpk, daily oral gavage, 17 days", "description": "(§1) MCF-7/ERα Y537S tumors that had been passaged in mice for more than three but less than ten generations were transplanted as approximately 3×3×3 mm tumor blocks into the subcutaneous right flank of female Balb/c nude mice. When the tumor volume in the tumor-bearing mice reached around 200 mm^3, the mice were randomly divided into four groups according to tumor volume and body weight: vehicle group, 1 mpk group, 3 mpk group, and 10 mpk group, 7 mice in each group. The day of grouping was designated as D0, and daily oral gavage administration began on this day and last for a total of 17 days. The 17th day after administration was designated as Day 17.\n(§2) The tumor volume was measured twice weekly using a caliper, and the body weight of the mice was measured using an analytical balance. The length and width of the tumor were measured, and the formula for tumor volume calculation is: Tumor Volume (TV) = 0.5 × length × width× width. The T/C value was calculated based on the tumor volume, where T is the mean relative tumor volume (RTV) of the treated groups, and C is the mean RTV of the vehicle group. The RTV is the ratio of the tumor volume after administration to the tumor volume before administration. The tumor growth inhibition rate (TGITV) (%) = (1 - T/C) × 100%."}, "[2]": {"assay": "Body weight of MCF-7/ERα Y537S xenograft mice", "assay_type": "in vivo, female Balb/c nude mice", "conditions": "1, 3 and 10 mpk, daily oral gavage, 17 days", "description": "as §1, §2"}}, "data": [{"smiles": "CC1(C)CC(=C(c2ccc(N3CCC4(CC3)CC(N3CCN(c5ccc6c(c5)CN([C@H]5CCC(=O)NC5=O)C6=O)CC3)C4)nc2)c2ccc3[nH]nc(F)c3c2)CC(C)(C)O1", "note": "[Compound 120]", "values": [{"measurement": "DC50", "setting": "ERα", "result": "< 10", "unit": "nM"}, {"measurement": "GI50", "setting": "MCF-7 cells", "result": "< 10", "unit": "nM"}, {"measurement": "tumor growth inhibition", "setting": "[1]", "result": "dose-dependent tumor growth inhibition"}, {"measurement": "effect on body weight", "setting": "[2]", "result": "no effect"}]}, {"smiles": "CC1(C)CC(=C(c2ccc(N3CCC(CN4CCN(c5ccc6c(c5)CN([C@H]5CCC(=O)NC5=O)C6=O)CC4)CC3)nc2)c2ccc3[nH]nc(F)c3c2)CC(C)(C)O1", "note": "[Compound 110]", "values": [{"measurement": "DC50", "setting": "ERα", "result": "< 10", "unit": "nM"}, {"measurement": "GI50", "setting": "MCF-7 cells", "result": "< 10", "unit": "nM"}, {"measurement": "tumor growth inhibition", "setting": "[1]", "result": "dose-dependent tumor growth inhibition"}, {"measurement": "effect on body weight", "setting": "[2]", "result": "no effect"}]}, {"smiles": "CC1(C)CC(=C(c2ccc(N3CCC(CN4CCN(c5ccc(NC6CCC(=O)NC6=O)cc5)CC4)CC3)nc2)c2ccc3[nH]nc(F)c3c2)CC(C)(C)O1", "note": "(stereo not drawn) [Compound 88]", "values": [{"measurement": "DC50", "setting": "ERα", "result": "> 100", "unit": "nM"}, {"measurement": "GI50", "setting": "MCF-7 cells", "result": "> 100", "unit": "nM"}]}, {"smiles": "CC1(C)CC(=C(c2ccc(N3CCN(C4CCN(c5ccc6c(c5)C(=O)N(C5CCC(=O)NC5=O)C6=O)CC4)CC3)cc2)c2ccc3[nH]nc(F)c3c2)CC(C)(C)O1", "note": "(stereo not drawn) [Compound 22]", "values": [{"measurement": "DC50", "setting": "ERα", "result": "< 10", "unit": "nM"}, {"measurement": "GI50", "setting": "MCF-7 cells", "result": "< 10", "unit": "nM"}]}, {"smiles": "CC1(C)CC(=C(c2ccc(N3CCC(N4CCN(c5ccc6c(c5)C(=O)N(C5CCC(=O)NC5=O)C6=O)CC4)CC3)cc2)c2ccc3[nH]nc(F)c3c2)CC(C)(C)O1", "note": "(stereo not drawn) [Compound 31]", "values": [{"measurement": "DC50", "setting": "ERα", "result": "< 10", "unit": "nM"}, {"measurement": "GI50", "setting": "MCF-7 cells", "result": "< 10", "unit": "nM"}]}, {"smiles": "CC1(C)CC(=C(c2ccc(N3CC4(CCN(C5CCN(c6ccc7c(c6)CN(C6CCC(=O)NC6=O)C7=O)CC5)CC4)C3)nc2)c2ccc3[nH]nc(F)c3c2)CC(C)(C)O1", "note": "(stereo not drawn) [Compound 46]", "values": [{"measurement": "DC50", "setting": "ERα", "result": "< 10", "unit": "nM"}, {"measurement": "GI50", "setting": "MCF-7 cells", "result": "< 10", "unit": "nM"}]}, {"smiles": "CC1(C)CC(=C(c2ccc(N3CCC(CN4CCN(c5ccc(NC6CCC(=O)NC6=O)c(F)c5)CC4)CC3)nc2)c2ccc3[nH]nc(F)c3c2)CC(C)(C)O1", "note": "(stereo not drawn) [Compound 89]", "values": [{"measurement": "DC50", "setting": "ERα", "result": "> 100", "unit": "nM"}, {"measurement": "GI50", "setting": "MCF-7 cells", "result": "> 100", "unit": "nM"}]}]}
